Assay results as given in patent US4849410A, “Pseudopterosin and synthetic derivatives thereof” (The Regents of the University of California, priority 1987, dated 1989).

How the values were obtained:
[1] = system: Intraperitoneally Administered Phenylquinone; assay: Phenylquinone Assay for Analgesia (writhing); format: in vivo, mice; conditions: for Mean Writhes per Animal / No. Writhes / % Change Relative to Control: 25 mg/kg; for No. Writhes: total of group; for % Change Relative to Control: writhes per animal; for Analgesic Activity: summary
Description: d. Phenylquinone Assay for Analgesia
Test compound is injected subcutaneously into mice. After 30 minutes, phenylquinone is injected intraperitoneally to cause pain as indicated by writhing.
Test compound was administered subcutaneously in sesame oil at concentrations up to 5 mg per ml depending on the test compound dosage protocol. The highest dose was 50 mg per Kg. Control groups received sesame oil subcutaneously.

[2] = system: Phorbol Myristate Acetate (PMA) Induced Topical Inflammation of the Mouse Ear; assay: Mouse Ear Anti-Inflammatory Assay (PMA, topical); format: in vivo; conditions: for Mean Ear Weight ± S.E.: Table IV, in mg; for Anti-inflammatory Activity: summary
Description: a. Mouse Ear Anti-Inflammatory Assay
Test compound and phorbol myristate acetate (PMA) are topically applied simultaneously to the pinnae of the ears of mice. Three hours twenty minutes after application, mice are sacrificed, ears removed and standard sized bores taken. Edema (inflammation) is measured as the difference in weight between control and treated ears.
The vheicle or carrier for the compounds used in the inflammatory and analgesic assays was as follows; For the mouse ear inflammatory assay, the vehicle was acetone. Controls received 25 microliters of acetone. Test compounds were applied to the experimental animals in 25 microliter volumes. For the sperm motility and fertilized sea urchin egg assays, the compounds were dissolved in 10 microliters undenatured ethanol.

[3] = system: M5076 reticulum cell sarcoma; assay: Activity in mice bearing ip M5076 reticulum cell sarcoma; format: in vivo, female B6D2F1 mice
Description: (§1) Compound I was also evaluated for activity against solid tumors as follows:
(§2) One-half ml of a 10 percent (v:v) brei of tumor cells prepared from solid B16 melanoma or M5076 reticulum cell sarcoma was implanted ip in female B6D2F1 mice which were randomized to treatment groups of 8 animals each. Treatment was initiated 24 hours after tumer inoculation and was continued daily for 10 days (cisplatin was administered q4Dx4 on Days 1, 5, 9 and 13). Mice were monitored daily for 60 days, and the median day of death was determined compared to three groups of untreated controls to provide percent increase in lifespan (ILS). ILS values of greater than or equal to 50 percent represent biologically significant antitumor effects. Cisplatin was curative in M5076 with 6/8 tumor-free survivors on Day 60 at the top dose level.

P388 leukemia = assay: Evaluation in mice bearing ip P388 leukemia; format: in vivo, female B6D2F1 mice
Description: Compound I was also evaluated in mice bearing P388 Leukemia as follows:
Compound I was administered to the mice as a solution by first dissolving it in N,N-dimethylacetamide, adding an equal volume of Cremophor EL and then 8 volumes of water. The drug concentration was such that the desired dose was delivered in a volume of 0.5 ml per mouse. Dilutions from the highest dose in a dose-response study were made by the addition of water so that organic component of the formulation decreased with dose reduction; the drug remained in solution.
10^6 P388 leukemia cells were implanted intraperitoneal in female B6D2F1 mice which were randomized to treatment groups of six animals each. Treatment was initiated 24 hours after tumor implantation and was continued daily for five days (Cisplatin was administered on Days 1 and 5 for the Group 1 mice). Mice were weighted as groups on Days 1, 5 and 9 to provide an indication of drug toxicity. Mice were monitored for survival daily for 45 days, and the median day of death was determined compared to three groups of untreated controls to provide percent increase in lifespan (ILS). ILS values of greater than or equal to 40 percent represent actual reduction in tumor cell burden during the course of treatment and are taken as indications of biologically significant antitumor effect.

B16 melanoma = assay: Activity in mice bearing ip B16 melanoma; format: in vivo, female B6D2F1 mice
Description: as §1, §2

[4] = Group 2, cisplatin 1 mg/kg ip, Days 1-5
[5] = Group 2, cisplatin 2 mg/kg ip, Days 1-5
[6] = Group I, cisplatin 3 mg/kg ip, Days 1 and 5
[7] = Group I, cisplatin 6 mg/kg ip, Days 1 and 5

## COc1c(C)c2c3c(c1O)C(C)CCC3C(C)CC2C=C(C)C (stereo not shown) [Compound XII]
[1]
  Mean Writhes per Animal: 12.5
  No. Writhes: 25
  % Change Relative to Control: +6%

## CC(=O)OC1=C(C)C2(O)C3=C(C1=O)C(C)CCC3C(C)CC2C=C(C)C (stereo not shown) [Compound XI]
[1]
  Mean Writhes per Animal: 12.3
  No. Writhes: 37
  % Change Relative to Control: +4%

## CC(=O)OC1C(O)COC(Oc2c(O)c(C)cc3c2C(C)CCC3C(C)CCC=C(C)C)C1O (stereo not shown) [Compound X]
[2]; 50.0 ug/ear
  Mean Ear Weight ± S.E.: 10.64 ± 1.93
[2]
  Anti-inflammatory Activity: Active

## CC(C)=CCCC(C)C1CCC(C)c2c1cc(C)c(O)c2OC1OCC(O)C(O)C1O (stereo not shown) [Compound IX]
[1]
  Mean Writhes per Animal: 6.8
  No. Writhes: 68
  % Change Relative to Control: -26%
  Analgesic Activity: Active
[2]; 25.0 ug/ear
  Mean Ear Weight ± S.E.: 15.85 ± 2.51
[2]; 50.0 ug/ear
  Mean Ear Weight ± S.E.: 14.04 ± 2.38
[2]
  Anti-inflammatory Activity: Active

## CC(=O)OC1COC(Oc2c(O)c(C)cc3c2C(C)CCC3C(C)CCC=C(C)C)C(O)C1O (stereo not shown) [Compound VIII]
[1]
  Analgesic Activity: Active
[2]; 25.0 ug/ear
  Mean Ear Weight ± S.E.: 13.93 ± 2.59
[2]; 50.0 ug/ear
  Mean Ear Weight ± S.E.: 12.07 ± 1.69
[2]
  Anti-inflammatory Activity: Active

## COc1ccc2c(c1)c(CC(=O)O)c(C)n2C(=O)c1ccc(Cl)cc1 [indomethacin, reference compound]
[2]; 50 microgram
  decrease in edema: 50%

## N.N.[Cl][Pt][Cl] [Cisplatin, reference compound]
[3]; cisplatin 3 mg/kg ip
  Increase to Lifespan: 121%
  Median Survival Time: 46.5 days
  Weight Change on Day 9: +0.1 gm
[3]; cisplatin 5 mg/kg ip
  Increase to Lifespan: > 200%
  Median Survival Time: > 60 days
  Weight Change on Day 9: -1.6 gm
[3]; top dose level of cisplatin
  tumor-free survivors on Day 60: 6/8
P388 leukemia; [4]
  Increase to Lifespan: 75%
  Median Survival Time: 17.5 days
  Weight Change Day 5: -0.2 gm
  Weight Change Day 9: +0.1 gm
P388 leukemia; [5]
  Increase to Lifespan: 200%
  Median Survival Time: 30 days
  Weight Change Day 5: -2.5 gm
  Weight Change Day 9: -0.9 gm
P388 leukemia; [6]
  Increase to Lifespan: 127%
  Median Survival Time: 25 days
  Weight Change Day 5: +0.3 gm
  Weight Change Day 9: +1.1 gm
P388 leukemia; [7]
  Increase to Lifespan: 177%
  Median Survival Time: 30.5 days
  Weight Change Day 5: -1.2 gm
  Weight Change Day 9: -1.1 gm
B16 melanoma; cisplatin 3 mg/kg ip
  Increase to Lifespan: 36%
  Median Survival Time: 30 days
  Weight Change on Day 9: +1.6 gm
B16 melanoma; cisplatin 6 mg/kg ip
  Increase to Lifespan: 77%
  Median Survival Time: 39 days
  Weight Change on Day 9: +0.5 gm
